Experimental data reported in patent publication US20150202179A1, “FATTY ACID DERIVATIVES FOR USE IN A METHOD OF TREATING DEPRESSION AND ASSOCIATED CONDITIONS” (YISSUM RESEARCH DEVELOPMENT COMPANY OF THE HEBREW …, priority 2012, published 2015).
Where two headings read alike, the source gives them in different places.

Columns and labels:
serotonin (5HT) levels = experiment: Serotonin (5HT) determination in brain tissue by HPLC with electrochemical detection; assay type: in vivo, mice; details: for 5HT: ng/g wet tissue +/− SEM; for 5HT levels in the hippocampus vs. control / 5HT levels in the hypothalamus vs. control: result in words
Description: Solution of DHBA as internal standard in the concentration of: 1 μg/ml in 0.1M perchloric acid, were prepared. Standard solutions of NE and 5HT in the concentration of 1-0.1 μg/ml in 0.1M perchloric acid were prepared.
Tissues (hypothalamus and hippocampus) obtained from 6-8 mice were dissected on ice surface and kept at −80 C. Hypothalamus (HT) or hippocampus (HC) from 1 mice were weighted (weight of HT −10-20 mg, HC 30-40 mg) and placed in eppendorf micro-centrifuge tube, 1.5 ml. To each tube was added 120-160 μl of ice cold solution of Perchloric acid and DHBA, homogenized in ice bath on Sonics vibra cell, 3×20 sec., 0.4 watts and centrifuged at 14,000×g at 4° C. 10 min. Supernatant gained was stored in ice before analysis.
The HPLC system consisted of Jasco PU-980 pump, Jasco AS-950-10 autosampler cooled at 4° C., H3 ODS-125A 3 μm 125 mm×4.6 mm i.d. analytical column (Hichrom, UK) were used. Electrochemical detector Coulochem ESA 5100A with analytical cell model 5011 was used for control detector voltage and record the current. Working electrode was set at potential +350 mV. Control and data collection/processing were handled through Borwin chromatography software.
The mobile phase composition: A stock buffer was prepared as follows: 20 mM sodium dihydrogenorthophosphate, EDTA 3 mg/l, 1-heptanesulfonic acid 1 g/l were dissolved in 1 liter deionized distilled water and buffered to pH 3.7 using concentrated phosphoric acid. To prepare the mobile phase buffer was mixed with acetonitrile (Baker HPLC analyzed) in the ratio 85:15 (v/v), filtered through a 0.2 μm membrane filter and degassed under vacuum after mixing. Mobile phase flow rate 1 ml/min. Injection volume 20 μl, retention time for DHBA 4.2 min., norepinephrine—3.1 min., 5HT 8.6 min. For calibration curve 1 ug/ml solution of DHBA together with 1.0-0.1 μg/ml solutions of 5HT and NE were used. The ratio between 5HT or NE and DHBA used to calculate the level of 5HT and NE in the sample. Date are given in ng/g wet tissue +/−SEM.

[1] = Weight and food consumption in OB/OB mice which lack the leptin gene; assay type: in vivo
Text: Thus the compounds of the invention can be used to treat conditions that are mediated by the enhancement of leptin levels. In obesity there is high leptin level however the leptin receptors are not responding. High CNS leptin level has anti-depression effect however, if there is tolerance there is no anti depression effect.

[2] = Tail Suspension Test, separated BALB/c mice (model for depression); assay type: in vivo; details: compounds 1 mg/kg i.p., imipramine 10 mg/kg i.p.; day 7; in relation to vehicle
Text: (§1) Tail suspension test (TST): Animals are suspended upside down by adhesive tape placed 1 cm from the tail tip. The elevation of the animal is 50 cm from the nearest surface. […] Statistical analysis compares the magnitude of immobility (in seconds) between different treatment groups. In this test, antidepressants characteristically cause an increase of the time fraction spent by the animal as active at the expense of the inactivity period.
50, 2 month old female BALB/c mice were separated (each mouse in a different cage) for 9 days period (a model for depression). On days 7, 8, 9, 34-40 mice were administered with either vehicle or compounds X, 12 and 15 (1 mg/kg i.p.) or imipramine 10 mg/kg (anti-depressant) i.p. and tested in the Tail suspension test on day 7 of the experiment (10 mice per group).

[3] = Forced Swim Test (FST), separated BALB/c mice; assay type: in vivo; details: compounds 1 mg/kg i.p., imipramine 10 mg/kg i.p.; day 8; in relation to vehicle
Description: Forced swim test (FST): The animal is placed in a circular, transparent, plexiglass tank measuring 21 cm in diameter and 46 cm in height containing water 15 cm high, maintained at 23-25° C. […] Also measured is the latency period, the time elapsing, for each animal from immersion in the water tank until the first occurrence of immobility. Since climbing activity is minimal in mice, […].
50, 2 month old female BALB/c mice, 10 mice per group, on ad libitum diet were separated (each mouse in a different cage) for 9 days (Separation Stress, a model for depression). On the 7, 8, 9, 34-40 days mice were administered with either vehicle or compounds x, 12 and 15 (1 mg/kg i.p.) or imipramine 10 mg/kg (antidepressant) i.p. and tested in the forced swim test (FST) on day 8.

POMC protein = POMC protein expression by western blot; assay type: in vivo, BALB/c mice
Description: 50, 2 month old female BALB/c mice, 10 mice per group, on ad libitum diet were separated (each mouse in a different cage) for 9 days (Separation Stress, a model for depression). On the 7, 8, 9, 34-40 days mice were administered with either vehicle or compounds x, 12 and 15 (1 mg/kg i.p.) or imipramine 10 mg/kg (antidepressant). POMC protein was monitored by western blot.

p-SAPK/JNK = p-SAPK/JNK levels in the hypothalamus; assay type: in vivo, BALB/c mice; details: FIG. 16
Text: 50, 2 month old female BALB/c mice, 10 mice per group, on ad libitum diet were separated (each mouse in a different cage) for 9 days (Separation Stress, a model for depression).

[4] = Tail Suspension Test, compound X dose study; assay type: in vivo, BALB/c mice; details: 10 mg/kg i.p.; day 23; more than imipramine and other concentrations
Text: as §1
50, 2 month old BALB/c mice, 10 mice per group, on ad libitum diet were divided to 5 experimental groups with equal weight. On the 2, 3, 4, 5, 9, 11, 16, 18, 23, 25, 29, 31 days mice were administered with either vehicle or compound x 0.1, 1, 10 mg/kg i.p. or imipramine 10 mg/kg.

[5] = Open Field Test, compound X dose study; assay type: in vivo, BALB/c mice; details: 10 mg/kg i.p.; day 25; better than the other concentrations
Description: 50, 2 month old BALB/c mice, 10 mice per group, on ad libitum diet were divided to 5 experimental groups with equal weight. On the 2, 3, 4, 5, 9, 11, 16, 18, 23, 25, 29, 31 days mice were administered with either vehicle or compound x 0.1, 1, 10 mg/kg i.p. or imipramine 10 mg/kg Open Field Test was evaluated on day 25. The more time they spent on the […] the less depressed.

With `CCCCCCCC/C=C\CCCCCCCC(=O)N[C@H](CO)C(C)C` [Compound 1, oleoyl-L-valinol amide] the “5HT” value (serotonin (5HT) levels; Hippocampus) was 342.2 ± 33 ng/g, the “5HT” value (serotonin (5HT) levels; Hypothalamus) was 854.4 ± 16.8 ng/g and the “5HT levels in the hippocampus vs. control” value (serotonin (5HT) levels) was “significantly enhanced”. The “5HT levels in the hippocampus vs. control” value (serotonin (5HT) levels; listed as X) was “increased significantly”, the “5HT levels in the hypothalamus vs. control” value (serotonin (5HT) levels) was “significantly enhanced” and the “5HT levels in the hypothalamus vs. control” value (serotonin (5HT) levels; listed as X) was “increased significantly”. For the same compound, the food consumption [1] was “did not change”, the “weight (weight loss)” value [1] was “did not change” and the “weight (weight loss)” value ([1]; listed as OVA) was “not body weight”. The “weight (weight loss)” value ([1]; listed as X) was “do not produce weight loss”, the “activity in Tail Suspension Test” value [2] was “significantly enhanced activity” and the “swimming activity in forced swim test” value [3] was “significantly enhanced swimming activity”. For the same compound, the “POMC protein expression in the hippocampus” value (POMC protein; hippocampus, FIG. 12) was “increased significantly”, the “POMC protein expression in the hypothalamus” value (POMC protein; hypothalamus, FIG. 11) was “increased significantly” and the “p-SAPK/JNK levels in the hypothalamus” value (p-SAPK/JNK) was “significant decrease”. For the same compound, the “motor activity in Tail Suspension Test” value [4] was “improved significantly motor activity” and the “motor activity in Open Field Test” value [5] was “improved motor activity like the impramine”.
